The values that follow come from article PMC4518038, “Identification of a Class of Protein ADP-Ribosylating Sirtuins in Microbial Pathogens” (Molecular Cell, 2015).

One experiment concerns the target T1, EcoLplA (Escherichia coli, UniProt P32099).
T1 construct: gene lplA
T1 sequence (P32099 2-338): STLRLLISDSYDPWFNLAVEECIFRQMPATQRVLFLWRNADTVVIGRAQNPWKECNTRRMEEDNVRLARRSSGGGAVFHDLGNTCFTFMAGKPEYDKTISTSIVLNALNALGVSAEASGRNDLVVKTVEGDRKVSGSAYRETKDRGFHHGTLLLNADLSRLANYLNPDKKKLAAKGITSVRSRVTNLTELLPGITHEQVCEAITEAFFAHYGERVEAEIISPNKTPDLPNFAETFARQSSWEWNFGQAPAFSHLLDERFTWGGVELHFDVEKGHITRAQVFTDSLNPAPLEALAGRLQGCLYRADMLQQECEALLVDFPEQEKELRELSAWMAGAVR
As to the kind of experiment: lipoylation of GcvH / GcvH-L, anti-lipoyl immunoblot. Type of experiment: biochemical. Conditions: co-substrate EcoGcvH, SauGcvH or SauGcvH-L; 1 uM LplA, 2 uM target protein, 30 min, 30 C. Background: Immunoblotting shows a protein as a band on a membrane.

For a further experiment, the target named is T2, LplA2 (S. pyogenes) (Streptococcus pyogenes, UniProt P0DN72).
T2 construct: gene lplA
The experiment is described as follows: lipoylation of GcvH-L, anti-lipoyl immunoblot. It counts as biochemical. Conditions: co-substrate SpyGcvH-L; 1 uM LplA, 2 uM target protein, 30 min, 30 C.

Another experiment deals with T3, SauLplA2 (Staphylococcus aureus, UniProt A0A0H3JX98).
T3 construct: gene SAV0327
T3 sequence (A0A0H3JX98 1-340): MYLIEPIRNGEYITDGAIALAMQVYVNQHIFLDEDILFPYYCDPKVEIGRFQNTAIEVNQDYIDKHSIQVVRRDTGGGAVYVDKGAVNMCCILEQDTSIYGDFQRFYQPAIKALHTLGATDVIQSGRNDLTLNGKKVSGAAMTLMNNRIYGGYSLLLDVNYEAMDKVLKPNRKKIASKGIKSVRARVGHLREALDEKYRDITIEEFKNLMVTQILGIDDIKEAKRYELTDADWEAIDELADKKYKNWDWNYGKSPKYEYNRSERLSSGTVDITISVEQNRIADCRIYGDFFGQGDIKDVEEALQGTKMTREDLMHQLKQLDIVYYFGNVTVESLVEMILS
As to the kind of experiment: lipoylation of GcvH-L, anti-lipoyl immunoblot. Type of experiment: biochemical. Conditions: co-substrate SauGcvH-L; 1 uM LplA, 2 uM target protein, 30 min, 30 C.

A further experiment has as its target T4, SauLplA1 (Staphylococcus aureus, UniProt A0A0H3JR16).
T4 construct: gene SAV1028
The note with it: co-substrate SauGcvH or SauGcvH-L; 1 uM LplA, 2 uM target protein, 30 min, 30 C.

A further experiment addresses T5, SpySirTM (Streptococcus pyogenes, UniProt P0DN71).
T5 construct: gene SpyM50869; crystal model residues 3-292 (7-10 not visible)
The experiment is described as follows: X-ray crystallography (crystal soak). It counts as binding. The note with it: 1 mM ligand soak, 10 min; 2.03 A; active site; also ADP-ribosyl donor for lipoylated GcvH-L.

T4 sequence (A0A0H3JR16 whole entry): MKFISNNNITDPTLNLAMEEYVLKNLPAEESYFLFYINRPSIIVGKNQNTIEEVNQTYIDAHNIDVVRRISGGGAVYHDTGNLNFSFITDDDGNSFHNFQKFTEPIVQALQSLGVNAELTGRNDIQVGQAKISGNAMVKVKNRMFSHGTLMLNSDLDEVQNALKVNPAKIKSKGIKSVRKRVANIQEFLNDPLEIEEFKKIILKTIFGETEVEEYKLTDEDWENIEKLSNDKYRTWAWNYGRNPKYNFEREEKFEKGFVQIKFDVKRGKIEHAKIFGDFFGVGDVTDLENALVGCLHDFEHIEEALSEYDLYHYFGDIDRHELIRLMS
T2 sequence (P0DN72 whole entry): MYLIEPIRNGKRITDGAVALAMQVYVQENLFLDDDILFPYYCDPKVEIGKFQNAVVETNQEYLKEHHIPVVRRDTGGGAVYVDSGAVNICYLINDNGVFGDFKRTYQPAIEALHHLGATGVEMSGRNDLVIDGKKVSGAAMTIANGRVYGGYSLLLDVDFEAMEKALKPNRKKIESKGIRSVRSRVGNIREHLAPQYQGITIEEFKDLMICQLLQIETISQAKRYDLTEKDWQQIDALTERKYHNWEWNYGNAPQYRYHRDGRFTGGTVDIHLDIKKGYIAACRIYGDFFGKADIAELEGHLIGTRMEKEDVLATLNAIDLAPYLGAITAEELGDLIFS
T5 sequence (P0DN71 whole entry, the tested form may be a part): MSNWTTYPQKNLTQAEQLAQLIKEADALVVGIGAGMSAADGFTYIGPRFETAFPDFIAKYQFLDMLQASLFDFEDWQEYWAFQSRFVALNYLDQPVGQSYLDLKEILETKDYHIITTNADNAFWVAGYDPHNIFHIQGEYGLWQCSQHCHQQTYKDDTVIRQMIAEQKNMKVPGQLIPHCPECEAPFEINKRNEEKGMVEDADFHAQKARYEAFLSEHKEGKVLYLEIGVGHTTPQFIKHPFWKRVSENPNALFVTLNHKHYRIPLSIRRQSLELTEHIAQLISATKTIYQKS

As to `O=C(O)CCCC[C@@H]1CCSS1` (racemic) [lipoic acid], the “lipoylation of GcvH / GcvH-L, anti-lipoyl immunoblot” value is “EcoLplA readily modifies all three GcvHs” on EcoLplA and “SauLplA1 appears to be indiscriminative toward both S. aureus GcvHs” at SauLplA1. The “lipoylation of GcvH-L, anti-lipoyl immunoblot” value on LplA2 (S. pyogenes) and at SauLplA2 was “both operonal LplA2s efficiently transferred lipoic acid (LA) onto GcvH-L” each time.

For the compound `NC(=O)c1ccc[n+]([C@@H]2O[C@H](COP(=O)(O)OP(=O)(O)OC[C@H]3O[C@@H](n4cnc5c(N)ncnc54)[C@H](O)[C@@H]3O)[C@@H](O)[C@H]2O)c1` [NAD^+], at SpySirTM, the “X-ray crystallography (crystal soak)” value is on record as “The ligand-SpySirTM complexes reveal that the general mode of NAD^+ binding to SpySirTM is similar”.
